Reference: patent publication US6855325B1, “Use of hypo-osmotic saline solutions and medicine based on said solutions” (Laboratoires GOEMAR S.A., priority 1999, dated 2005)
“Also recorded” adds a separate entry of the source.

Assays:
[1] = tested on: normal human epidermic keratinocytes; assay: cytotoxic effect: percentage of proteins remaining in keratinocytes after 4 hours of incubation; format: cell-based; details: 4 hours incubation
Experimental: For the examination of the toxicity, normal human epidermic keratinocytes were used which were taken from epidermis samples; they consist especially in keratinocytes isolated from the remains of an operation of an abdominal plasty carried out on a person (patient No. 10020).
These keratinocytes were cultivated at 37° C. in a culture medium intended for keratinocytes or MCK, i.e. the one which is marketed under the designation “SFM defined-keratinocyte medium” by the company GIBCO under a humid atmosphere containing 5% of CO2 until confluence of the monolayers.
These six products were incubated during 4 hours in the cultures of the keratinocytes.
Before the incubation, the cells, i.e. the keratinocytes, were rinsed with the tested products in order to eliminate any trace of culture medium.
The saline solutions J, I, H, and K and the physiological serum were used without dilution.
The dexamethasone has been tested at 10 μM in the medium MCK.
The cultures of keratinocytes were incubated in the presence of the six products during 4 hours at 37° C., under a humid atmosphere containing 5% of CO2.
The control cultures, incubated in the medium MCK in the absence of the six products, were carried out in parallel.
All these trials were carried out three times. […]

interleukine IL-8 = assay: release of interleukine IL-8 in cultures of keratinocytes under the influence of MCK medium; format: cell-based, human; details: 4 hours incubation; saline solutions and physiological serum without dilution, dexamethasone 10 μM in MCK; control MCK = 100
From the text: Then the ability of the hypoosmotic saline solutions used according to the invention to prevent and to limit the release under the influence of certain diseases or certain pro-inflammatory agents of the chemical mediators responsible for the starting of the cutaneous inflammatory phenomena has been examined.
The tested chemical mediator was interleukine IL-8.
The pro-inflammatory agent was consisting of the MCK culture medium which appears to be at the origin of a strong release of interleukine IL-8 in cultures of keratinocytes.
The procedure was similar to that used in the above disclosed tests concerning the estimation of the cytotoxicity of the various tested products.
These products were the same.
The duration of the incubation was also equal to 4 hours.
Under the influence of the MCK medium, the release of interleukine IL-8 was 100 pg/mg of proteins; in that same medium determination has been carried out of the amounts of interleukine IL-8 released in the presence of the six tested products, i.e. on the one hand, the products J, I, H, K as well as physiological serum which were used without dilution and, on the other hand, dexamethasone which has been used at the rate of 10 μM in the MCK medium.

C[C@@H]1C[C@H]2[C@@H]3CCC4=CC(=O)C=C[C@]4(C)[C@@]3(F)[C@@H](O)C[C@]2(C)[C@@]1(O)C(=O)CO [Dexamethasone, dexamethasone]
cytotoxic effect with respect to keratinocytes (in words) [1]: not cytotoxic; also recorded: very few cytotoxic
amounts of interleukine IL-8 released (interleukine IL-8): 74 pg of IL-8/mg of proteins
